Values of other authors as cited in patent publication US10273546B2, “Method and composition for diagnosis or treatment of aggressive prostate cancer” (The Trustees of Columbia University in the City of New York, priority 2014, dated 2019).

Tests used:
[1] = human, in vivo
Apo-B = settings: animal models

In the case of Mipomersen, the toxic effects [1] is given as “relatively mild” and the “repression of target apo-B expression” value (Apo-B) is given as “robust and prolonged repression”.
